The results in this text go back to patent US10022354B2, “Pyrrolidine amide compounds as histone demethylase inhibitors” (GENENTECH, INC., priority 2014, dated 2018).

The structures appear in SMILES notation.

The target in one experiment is full length KDM5A enzyme (Homo sapiens (Human), UniProt P29375). Nature of the experiment: KDM5 Enzyme Assay (KDM5A HTRF). Format: biochemical. The following applies: 2 nM full length KDM5A, 100 nM H3K4Me3 peptide, 1 uM 2-OG, 30 min room temperature. Put shortly:
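KDM5A demethylase activity was assessed by HTRF using in-house expressed and purified full length human KDM5A at 2 nM with 100 nM biotinylated H3K4Me3 peptide and 1 uM 2-OG. The 10 uL reaction also held 100 uM Fe^2+, 500 uM ascorbate, 50 mM HEPES pH 7.0, 0.01% Triton-X 100, 2 mM DTT and 0.25% DMSO. Detection used Eu-labeled H3K4me1-2 antibody and streptavidin-XL665, read on an Envision reader.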

In experiment [1] the test system is H3K4Me3 mark level in PC9 cells. Nature of the experiment: KDM5 Cell Assay (H3K4Me3 mark level, PC9 HTRF). Format: cell-based. Conditions: Homo sapiens, PC-9, 120 hours at 37° C. The protocol: PC9 cells were seeded in a 384 well plate (2000 cells/well) with a test compound and incubated for 120 hours at 37° C. H3K4Me3 mark level was assessed using HTRF reagents from CisBio. Briefly, media was removed and cells were lysed in 20 μL of Epigeneous Cell Histone lysis buffer C for 45 min at 26° C., shaking. 10 μL of 4 μg/mL acceptor antibody (H3K4me3-d2) and 10 μL of 1.2 μg/mL donor antibody (Total H3-K) in Cell Histone detection buffer were added and the mixture was incubated at 26° C. for 1 hour. Assay plate was read subsequently on Envision (Perkin Elmer). Each compound was run in duplicate. Data were normalized to DMSO treated wells as the low response and EC50's were calculate using a four-parameter fit.

Chain of full length KDM5A enzyme (P29375 whole entry): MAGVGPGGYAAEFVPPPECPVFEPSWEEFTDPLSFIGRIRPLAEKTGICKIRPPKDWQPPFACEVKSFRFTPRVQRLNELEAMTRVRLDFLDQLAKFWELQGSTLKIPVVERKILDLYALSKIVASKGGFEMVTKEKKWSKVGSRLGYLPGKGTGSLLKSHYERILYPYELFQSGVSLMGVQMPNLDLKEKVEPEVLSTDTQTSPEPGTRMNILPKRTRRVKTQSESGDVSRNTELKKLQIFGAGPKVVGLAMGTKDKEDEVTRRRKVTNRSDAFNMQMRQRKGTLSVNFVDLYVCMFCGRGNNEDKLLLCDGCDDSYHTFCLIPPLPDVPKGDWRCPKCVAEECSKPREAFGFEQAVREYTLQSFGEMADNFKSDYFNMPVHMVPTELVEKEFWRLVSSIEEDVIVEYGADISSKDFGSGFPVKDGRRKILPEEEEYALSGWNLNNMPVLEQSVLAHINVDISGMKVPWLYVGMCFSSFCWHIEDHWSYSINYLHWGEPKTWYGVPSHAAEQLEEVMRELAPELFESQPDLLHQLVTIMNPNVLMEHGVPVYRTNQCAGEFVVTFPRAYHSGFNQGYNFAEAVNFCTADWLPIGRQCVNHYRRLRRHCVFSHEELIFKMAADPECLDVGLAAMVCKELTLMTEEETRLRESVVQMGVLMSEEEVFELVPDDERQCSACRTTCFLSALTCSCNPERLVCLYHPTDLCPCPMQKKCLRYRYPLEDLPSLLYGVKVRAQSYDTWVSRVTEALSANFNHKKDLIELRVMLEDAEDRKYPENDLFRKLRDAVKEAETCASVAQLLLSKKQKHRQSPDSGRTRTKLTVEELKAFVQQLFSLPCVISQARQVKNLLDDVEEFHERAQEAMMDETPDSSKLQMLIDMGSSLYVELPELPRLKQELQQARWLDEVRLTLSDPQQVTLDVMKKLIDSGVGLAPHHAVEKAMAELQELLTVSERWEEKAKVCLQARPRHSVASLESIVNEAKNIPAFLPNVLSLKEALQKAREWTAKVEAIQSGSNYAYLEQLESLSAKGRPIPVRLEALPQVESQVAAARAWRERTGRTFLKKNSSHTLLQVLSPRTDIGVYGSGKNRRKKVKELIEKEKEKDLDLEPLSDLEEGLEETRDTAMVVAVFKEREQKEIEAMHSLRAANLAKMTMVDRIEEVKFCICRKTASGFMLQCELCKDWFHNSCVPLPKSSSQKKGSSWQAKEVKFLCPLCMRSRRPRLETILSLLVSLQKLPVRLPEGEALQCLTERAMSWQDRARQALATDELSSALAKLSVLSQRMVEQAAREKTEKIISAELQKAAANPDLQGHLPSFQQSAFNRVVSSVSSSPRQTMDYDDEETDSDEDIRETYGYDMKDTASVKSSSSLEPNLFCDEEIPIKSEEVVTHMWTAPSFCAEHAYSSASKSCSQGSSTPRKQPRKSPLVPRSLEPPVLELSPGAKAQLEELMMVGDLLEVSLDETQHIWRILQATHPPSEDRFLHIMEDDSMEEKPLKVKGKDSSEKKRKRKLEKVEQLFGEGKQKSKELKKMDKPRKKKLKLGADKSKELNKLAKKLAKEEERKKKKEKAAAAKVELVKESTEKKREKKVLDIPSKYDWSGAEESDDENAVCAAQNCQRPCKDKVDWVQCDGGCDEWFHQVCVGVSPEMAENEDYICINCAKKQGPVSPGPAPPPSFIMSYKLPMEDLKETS

As for `CC(C)c1cc(C(=O)N2CCC(N3Cc4ccccc4C3=O)C2)[nH]n1` (stereo not shown) [Example 30, 2-(1-(3-Isopropyl-1H-pyrazole-5-carbonyl)pyrrolidin-3-yl)isoindolin-1-one], inhibition on full length KDM5A enzyme was half-maximal at 0.14 nM (IC50). In addition, the EC50 (commonly the concentration giving half of the maximal effect) in experiment [1] came to 15 nM.
As for `CC(C)c1cc(C(=O)N2CC[C@H](NC(=O)c3ccccc3)C2)[nH]n1` [Example 117], the IC50 – broadly, the midpoint of a concentration-inhibition curve – against full length KDM5A enzyme was found to be 0.077 nM. The compound also registered an EC50 in experiment [1] of 8.2 nM.
Taken in the same sequence, the figures for `CC(C)c1cc(C(=O)N2CCC(NC(=O)c3ccc4cc[nH]c4n3)C2)[nH]n1` (stereo not shown) [Example 135] were 0.076 nM and 4.9 nM.
On to `CNC(=O)NC1CCN(C(=O)c2cc(C(C)C)n[nH]2)C1` (stereo not shown) [Example 34, 1-(1-(3-Isopropyl-1H-pyrazole-5-carbonyl)pyrrolidin-3-yl)-3-methylurea], for which the IC50 against full length KDM5A enzyme was 0.058 nM. The EC50 in experiment [1] came to 2.3 nM.
On full length KDM5A enzyme, `CC(C)c1cc(C(=O)N2CC[C@@H](NC(=O)C3CC34CC4)C2)[nH]n1` (stereo partly shown) [Example 228] showed an IC50 of 0.078 nM. The EC50 in experiment [1] turned out to be 1.1 nM.
On to `CC(C)c1cc(C(=O)N2CCC(NC(=O)NC3CC3)C2)[nH]n1` (stereo not shown) [Example 33, 1-Cyclopropyl-3-(1-(3-isopropyl-1H-pyrazole-5-carbonyl)pyrrolidin-3-yl)urea], for which it took 0.087 nM to reach half-maximal inhibition at full length KDM5A enzyme (IC50). The same compound registered an EC50 in experiment [1] of 3.3 nM.
Turning to `CC(C)c1cc(C(=O)N2CC[C@@H](NC(=O)[C@H]3C[C@H]3F)C2)[nH]n1` [Example 222], the IC50 on full length KDM5A enzyme is 0.025 nM. In experiment [1], this compound showed an EC50 of 1.3 nM.
For `CC(C)c1cc(C(=O)N2CC[C@@H](NC(=O)[C@@H]3C[C@H]3F)C2)[nH]n1` [Example 232], in that order: 0.14 nM and 5 nM.
The compound `CC(C)n1cnc(C(=O)N2CCC(NC(=O)C3CC3)C2)c1` (stereo not shown) [Example 19, N-(1-(1-isopropyl-1H-imidazole-4-carbonyl)pyrrolidin-3-yl)cyclopropanecarboxamide] gave an IC50 at full length KDM5A enzyme of 0.21 nM. In experiment [1], a half-maximal effect (EC50) was put at 26 nM.
For `CC(C)c1cc(C(=O)N2CC[C@@H](n3cccc(C4CC4)c3=O)C2)[nH]n1` [Example 41, (R)-3-cyclopropyl-1-(1-(3-isopropyl-1H-pyrazole-5-carbonyl)pyrrolidin-3-yl)pyridin-2(1H)-one], the IC50 against full length KDM5A enzyme is 0.051 nM. The compound further showed an EC50 in experiment [1] of 6.8 nM.
The compound `CC(C)c1cc(C(=O)N2C[C@H](NC(=O)C3CC3)[C@@H](F)C2)[nH]n1` [Example 218] gave an IC50 against full length KDM5A enzyme of 0.05 nM. For the same compound, it took 1.7 nM to reach a half-maximal effect in experiment [1] (EC50).
